Consider 21 molecules from patent US11414416B1, “Compounds and uses thereof” (Foghorn Therapeutics Inc., priority 2019, dated 2022).

pIC50: −log10 of the molar value.

One assay concerns the target BRD9 bromodomain (Homo sapiens (Human), UniProt Q9H8M2). Put plainly: BRD9 bromodomain TR-FRET competition binding assay. Particulars: Table 4; competition with biotinylated ligand, 3 nM Flag-BRD9, 90 minutes. How it is done:
Procedure: His-Flag-BRD9 (P133-K239; Swiss Prot Q9H8M2; SEQ ID NO:1 mgsshhhhhhenlyfq/gdykddddkgslevlfqg/[…] […]) was cloned, expressed, purified, and then treated with TEV protease. Cleaved His tag was removed by purification. The binding of a biotinylated small molecule ligand of BRD9 was assessed via the LANCE® TR-FRET platform (PerkinElmer), and the compounds were assayed for inhibitory activity against this interaction.
A mixture of biotinylated-ligand and SureLight™ Allophycocyanin-Streptavidin (APC-SA, PerkinElmer AD0201) in 50 mM HEPES (pH 7.4), 50 mM NaCl, 1 mM TCEP (pH 7), 0.01% (v/v) Tween-20, 0.01% (w/v) bovine serum albumin was added to a white 384-well PerkinElmer Proxiplate Plus plate. DMSO or 3-fold serially diluted compounds were then added to the Proxiplate followed by addition of Flag-BRD9. After a 10-minute incubation at room temperature, Eu-W1024 anti-FLAG (PerkinElmer, AD0273) was added. The final reaction mixture that contained 3.75 nM biotinylated ligand, 3 nM Flag-BRD9, 7.5 nM SureLight™ Allophycocyanin-Streptavidin, and 0.2 nM Eu-W1024 anti-FLAG was incubated at room temperature for 90 minutes.
Results: The plates were then read on a PerkinElmer Envision plate reader to determine the ratio of emission at 665 nm over 615 nm. […]
For orientation: Time-resolved FRET reads energy transfer from a long-lived donor to a nearby acceptor.

Assay [1] concerns the target Nanoluciferase-BRD9 fusion protein (Homo sapiens (Human), UniProt Q9H8M2). Put plainly: SYO1 BRD9 NanoLuc degradation assay. The settings on record: Table 5A, SYO-1 cells expressing 3×FLAG-NLuc-BRD9, 6 hours; for DC50: read-out: SYO1 BRD9-NanoLuc degradation IC50. Format: cell-based. In short, it runs like this:
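Degradation was read as loss of nanoluciferase signal (Nano-Glo) after 6 h compound exposure in a stable SYO-1 line carrying 3×FLAG-NLuc-BRD9 (8000 cells/well). Normalised between DMSO (high) and a 1 μM known BRD9 degrader (low).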

Chain of Nanoluciferase-BRD9 fusion protein (Q9H8M2 whole entry, the tested form may be a part): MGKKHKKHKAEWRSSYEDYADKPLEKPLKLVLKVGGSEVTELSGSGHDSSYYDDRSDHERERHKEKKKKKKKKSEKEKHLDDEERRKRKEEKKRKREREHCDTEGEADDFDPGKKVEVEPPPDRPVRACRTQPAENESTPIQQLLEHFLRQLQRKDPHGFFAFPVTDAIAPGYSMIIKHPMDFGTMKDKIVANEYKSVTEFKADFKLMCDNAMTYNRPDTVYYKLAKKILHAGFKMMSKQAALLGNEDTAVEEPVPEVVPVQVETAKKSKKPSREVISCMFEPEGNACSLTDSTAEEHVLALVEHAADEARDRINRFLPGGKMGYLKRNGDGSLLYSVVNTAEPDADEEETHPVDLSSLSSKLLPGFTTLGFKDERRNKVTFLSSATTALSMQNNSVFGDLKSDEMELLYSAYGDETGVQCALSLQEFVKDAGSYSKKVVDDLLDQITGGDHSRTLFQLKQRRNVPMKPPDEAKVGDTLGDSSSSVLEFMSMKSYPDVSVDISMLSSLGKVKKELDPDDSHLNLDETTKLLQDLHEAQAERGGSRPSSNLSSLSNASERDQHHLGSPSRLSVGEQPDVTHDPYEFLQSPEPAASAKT
Chain of BRD9 bromodomain (Q9H8M2 133-239): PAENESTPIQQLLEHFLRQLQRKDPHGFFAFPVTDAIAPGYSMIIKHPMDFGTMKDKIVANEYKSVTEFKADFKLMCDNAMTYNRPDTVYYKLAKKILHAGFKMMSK

On to `COc1cc(-c2cn(C)c(=O)c3cnccc23)cc(OC)c1CN(C)CC1CC2CN(C(=O)CCOCCOc3ccc4c(c3)C(=O)N(C3CCC(=O)NC3=O)C4=O)C[C@@H]2C1` (some centres unmarked) [Compound D176], for which the pIC50 (on BRD9 bromodomain; in assay [1]) was above 8.00 each time.

Turning to `COc1cc(-c2cn(C)c(=O)c3cnccc23)cc(OC)c1CN1CC[C@@H]1C(=O)NCCCCCCCCNc1cccc2c1C(=O)N(C1CCC(=O)NC1=O)C2=O` (some centres unmarked) [Compound D10], the pIC50 was 7.00 to 8.00 at BRD9 bromodomain and above 8.00 in assay [1].

For the molecule `COc1cc(-c2cn(C)c(=O)c3cnccc23)cc(OC)c1CN1CCC(OC2CCN(C(=O)CCOCCOc3ccc4c(c3)C(=O)N(C3CCC(=O)NC3=O)C4=O)CC2)CC1` (centres unmarked) [Compound D131], the pIC50 (on BRD9 bromodomain; in assay [1]) was above 8.00 each time.

At BRD9 bromodomain, `COc1cc(-c2cn(C)c(=O)c3cnccc23)cc(OC)c1CNCCCN1CC(Oc2ccc3c(c2)C(=O)N(C2CCC(=O)NC2=O)C3=O)C1` (centres unmarked) [Compound D31, 5-((1-(3-((2,6-dimethoxy-4-(2-methyl-1-oxo-1,2-dihydro-2,7-naphthyridin-4-yl)benzyl)amino)propyl)azetidin-3-yl)oxy)-2-(2,6-dioxopiperidin-3-yl)isoindoline-1,3-dione formic acid] showed a pIC50 above 8.00. Further, the DC50 in assay [1] lay in the range of 0.01 to 0.1 µM.

For the molecule `COc1cc(-c2cn(C)c(=O)c3cnccc23)cc(OC)c1CN1CC[C@H]1C(=O)NCCN(C)CCNc1cccc2c1C(=O)N(C1CCC(=O)NC1=O)C2=O` (stereo partly drawn) [Compound D25, (2S)-1-[[2,6-dimethoxy-4-(2-methyl-1-oxo-1,2-dihydro-2,7-naphthyridin-4-yl)phenyl]methyl]-N-[2-[(2-[[2-(2,6-dioxopiperidin-3-yl)-1,3-dioxo-2,3-dihydro-1H-isoindol-4-yl]amino]ethyl)(methyl)amino]ethyl]azetidine-2-carboxamide], the pIC50 on BRD9 bromodomain was above 8.00. In assay [1], the DC50 lay within 0.1 to 1 µM.

On to `COc1cc(-c2cn(C)c(=O)c3cnccc23)cc(OC)c1CN(C)C12CC(NC(=O)CCCCCOc3cccc4c3C(=O)N(C3CCC(=O)NC3=O)C4=O)(C1)C2` (centres unmarked) [Compound D60, N-[3-([[2,6-dimethoxy-4-(2-methyl-1-oxo-2,7-naphthyridin-4-yl)phenyl]methyl](methyl)amino)bicyclo[1.1.1]pentan-1-yl]-6-[[2-(2,6-dioxopiperidin-3-yl)-1,3-dioxoisoindol-4-yl]oxy]hexanamide formic acid], for which the pIC50 (at BRD9 bromodomain; in assay [1]) was above 8.00 each time.

In turn, `COc1cc(-c2cn(C)c(=O)c3cnccc23)cc(OC)c1CN1CC(C)(C(=O)NCCCCCCCCNc2cccc3c2C(=O)N(C2CCC(=O)NC2=O)C3=O)C1` (centres unmarked) [Compound D13, 1-(2,6-dimethoxy-4-(2-methyl-1-oxo-1,2-dihydro-2,7-naphthyridin-4-yl)benzyl)-N-(8-((2-(2,6-dioxopiperidin-3-yl)-1,3-dioxoisoindolin-4-yl)amino)octyl)-3-methylazetidine-3-carboxamide] had a pIC50 at BRD9 bromodomain above 8.00. Moreover, the DC50 in assay [1] is below 0.01 µM.

For the molecule `COc1cc(-c2cn(C)c(=O)c3cnccc23)cc(OC)c1CN1CCC2(C[C@H]2NC(=O)CCOCCOc2cccc3c2C(=O)N(C2CCC(=O)NC2=O)C3=O)C1` (some centres unmarked) [Compound D111], at BRD9 bromodomain, the pIC50 was above 8.00. For the same molecule, the DC50 in assay [1] fell in the range of 0.01 to 0.1 µM.

As to `COc1cc(-c2cn(C)c(=O)c3cnccc23)cc(OC)c1CN(C)C1CC2CN(C(=O)CCOCCOc3cccc4c3C(=O)N(C3CCC(=O)NC3=O)C4=O)CC2C1` (centres unmarked) [Compound D160], the pIC50 at BRD9 bromodomain was above 8.00. Besides, the DC50 in assay [1] lay within 0.01 to 0.1 µM.

For `COc1cc(-c2cn(C)c(=O)c3cnccc23)cc(OC)c1CN1CC(NC(=O)CCCCCOc2cccc3c2C(=O)N(C2CCC(=O)NC2=O)C3=O)C1` (centres unmarked) [Compound D5, N-(1-[[2,6-dimethoxy-4-(2-methyl-1-oxo-1,2-dihydro-2,7-naphthyridin-4-yl)phenyl]methyl]azetidin-3-yl)-6-[[2-(2,6-dioxopiperidin-3-yl)-1,3-dioxo-2,3-dihydro-1H-isoindol-4-yl]oxy]hexanamide], at BRD9 bromodomain, the pIC50 was above 8.00. In addition, the DC50 in assay [1] was 0.01 to 0.1 µM.

On to `COc1cc(-c2cn(C)c(=O)c3cnccc23)cc(OC)c1CN1CC(S(=O)(=O)NCCCCCCCCNc2cccc3c2C(=O)N(C2CCC(=O)NC2=O)C3=O)C1` (centres unmarked) [Compound D12, 1-[[2,6-dimethoxy-4-(2-methyl-1-oxo-1,2-dihydro-2,7-naphthyridin-4-yl)phenyl]methyl]-N-(8-[[2-(2,6-dioxopiperidin-3-yl)-1,3-dioxo-2,3-dihydro-1H-isoindol-4-yl]amino]octyl)azetidine-3-sulfonamide], for which the pIC50 (at BRD9 bromodomain; in assay [1]) was above 8.00 each time.

Turning to `COc1cc(-c2cn(C)c(=O)c3cc(O)ccc23)cc(OC)c1CN1CCC2(CC1)CN(C(=O)CCCOc1cccc3c1C(=O)N(C1CCC(=O)NC1=O)C3=O)CCO2` (centres unmarked) [Compound D54, 2-(2,6-dioxopiperidin-3-yl)-4-[4-(9-[[4-(7-hydroxy-2-methyl-1-oxoisoquinolin-4-yl)-2,6-dimethoxyphenyl]methyl]-1-oxa-4,9-diazaspiro[5.5]undecan-4-yl)-4-oxobutoxy]isoindole-1,3-dione formic acid], the pIC50 (at BRD9 bromodomain; in assay [1]) was 7.00 to 8.00 throughout.

In turn, `COc1cc(-c2cn(C)c(=O)c3cnccc23)cc(OC)c1CN1CCC2(C[C@@H]2NC(=O)CCOCCOc2ccc3c(c2)C(=O)N(C2CCC(=O)NC2=O)C3=O)C1` (some centres unmarked) [Compound D125] gave a negative-log IC50 (pIC50) at BRD9 bromodomain above 8.00. Also, in assay [1], the DC50 was 0.01 to 0.1 µM.

The molecule `COc1cc(-c2cn(C)c(=O)c3cnccc23)cc(OC)c1CN(C)C1CC2CN(C(=O)CCOCCOc3ccc4c(c3)C(=O)N(C3CCC(=O)NC3=O)C4=O)CC2C1` (centres unmarked) [Compound D169] had a negative-log IC50 (pIC50) at BRD9 bromodomain above 8.00. For the same molecule, in assay [1], the DC50 was 0.01 to 0.1 µM.

At BRD9 bromodomain, `COc1cc(-c2cn(C)c(=O)c3cnccc23)cc(OC)c1CN1CC(C(=O)NCCCCCCCCNC(=O)COc2cccc3c2C(=O)N(C2CCC(=O)NC2=O)C3=O)C1` (centres unmarked) [Compound D4, N-[8-[(1-[[2,6-dimethoxy-4-(2-methyl-1-oxo-1,2-dihydro-2,7-naphthyridin-4-yl)phenyl]methyl]azetidin-3-yl)formamido]octyl]-2-[[2-(2,6-dioxopiperidin-3-yl)-1,3-dioxo-2,3-dihydro-1H-isoindol-4-yl]oxy]acetamide formic acid] showed a pIC50 above 8.00. The DC50 in assay [1] fell in the range of 0.01 to 0.1 µM.

In turn, `COc1cc(-c2cn(C)c(=O)c3cnccc23)cc(OC)c1CN(C)CC(=O)N1CCC(C2CCN(C(=O)COc3cccc4c3C(=O)N(C3CCC(=O)NC3=O)C4=O)CC2)CC1` (centres unmarked) [Compound D2, 4-(2-[1-[2-([[2,6-dimethoxy-4-(2-methyl-1-oxo-1,2-dihydro-2,7-naphthyridin-4-yl)phenyl]methyl](methyl)amino)acetyl]-[4,4-bipiperidin]-1-yl]-2-oxoethoxy)-2-(2,6-dioxopiperidin-3-yl)-2,3-dihydro-1H-isoindole-1,3-dione] gave a pIC50 at BRD9 bromodomain above 8.00. For the same molecule, in assay [1], the DC50 lay in the range of 0.01 to 0.1 µM.

For `COc1cc(-c2cn(C)c(=O)c3cnccc23)cc(OC)c1CN1CC2(CCN(C(=O)CCOCCOc3ccc4c(c3)C(=O)N(C3CCC(=O)NC3=O)C4=O)C2)C1` (centres unmarked) [Compound D122], the pIC50 (on BRD9 bromodomain; in assay [1]) was above 8.00 in each case.

In the case of `COc1cc(-c2cn(C)c(=O)c3cnccc23)cc(OC)c1CN1CC(C(=O)NCCCCCCCCNc2cccc3c2C(=O)N(C2CCC(=O)N(C)C2=O)C3=O)C1` (centres unmarked) [Compound D8, 1-[[2,6-dimethoxy-4-(2-methyl-1-oxo-1,2-dihydro-2,7-naphthyridin-4-yl)phenyl]methyl]-N-(8-[[2-(1-methyl-2,6-dioxopiperidin-3-yl)-1,3-dioxo-2,3-dihydro-1H-isoindol-4-yl]amino]octyl)azetidine-3-carboxamide formic acid], at BRD9 bromodomain, the pIC50 is above 8.00. Moreover, the DC50 in assay [1] was above 1 µM.

Turning to `COc1cc(-c2cn(C)c(=O)c3cnccc23)cc(OC)c1CN1CCN(C(=O)C2CC2CNC(=O)COc2cccc3c2C(=O)N(C2CCC(=O)NC2=O)C3=O)CC1` (centres unmarked) [Compound D65, N-[[2-(4-[[2,6-dimethoxy-4-(2-methyl-1-oxo-2,7-naphthyridin-4-yl)phenyl]methyl]piperazine-1-carbonyl)cyclopropyl]methyl]-2-[[2-(2,6-dioxopiperidin-3-yl)-1,3-dioxoisoindol-4-yl]oxy]acetamide], the pIC50 is 7.00 to 8.00 on BRD9 bromodomain and 6.00 to 7.00 in assay [1].

Take `COc1cc(-c2cn(C)c(=O)c3cnccc23)cc(OC)c1CN(C)CCCN1CCC(Oc2ccc3c(c2)C(=O)N(C2CCC(=O)NC2=O)C3=O)CC1` (centres unmarked) [Compound D52, 5-((1-(3-((2,6-dimethoxy-4-(2-methyl-1-oxo-1,2-dihydro-2,7-naphthyridin-4-yl)benzyl) (methyl)amino)propyl)piperidin-4-yl)oxy)-2-(2,6-dioxopiperidin-3-yl)isoindoline-1,3-dione formic acid]: the pIC50 (on BRD9 bromodomain; in assay [1]) was above 8.00 each time.

Take `COc1cc(-c2cn(C)c(=O)c3cnccc23)cc(OC)c1CN1CC2CN(C(=O)CCOCCOc3cccc4c3C(=O)N(C3CCC(=O)NC3=O)C4=O)CCC21` (centres unmarked) [Compound D92]: at BRD9 bromodomain, the pIC50 is above 8.00.

As a reminder, the pIC50 is −log10 of the IC50, conventionally taken in molar units.
